This is an account of results in patent US7018642B2 (The Procter & Gamble Company, priority 2001, dated 2006).

Type in all cases: cell-based
Assay [1] concerns P. fluorescens strain ATCC 13525. As to the kind of experiment: Biofilm prevention screen (96-well microplate, crystal violet). The conditions noted are these: Pseudomonas fluorescens, positive = prevention, negative = enhancement of biofilm formation, quadruplicate, read-out: average percentage reduction of biofilm formed relative to DMSO controls; for inhibition at 32 µM: ATCC13525, 32 μM; for inhibition at 160 µM: ATCC13525, 160 μM; for inhibition at 390 µM: ATCC13525, 390 μM. The protocol: (§1) Overnight cultures of 3 mL are made of P. aeruginosa strain PAO1 (grown in R2A medium (Handbook of Microbiological Media; CRC Press, 1997, second edition, R. M. Atlas, ed.), modified to omit Mg^2+ but to include 0.3–0.5% fructose (pH 7.0) and 3 μM ferrous ammonium sulfate), P. fluorescens strain ATCC 13525 (grown in R2A modified to omit Mg^2+ but to include 0.3–0.5% sodium pyruvate (pH 7.0)), S. epidermidis strain ATCC 35984 (grown in a ¼ dilution of TSB (Handbook of Microbiological Media; CRC Press, 1997, second edition, R. M. Atlas, ed.) supplemented with 1% fructose (pH 7.0) and 3 μM ferrous ammonium sulfate). To each type of growth medium, HEPES (pH 7.3) is optionally added to a final concentration of 10 mM.
(§2) To PS, PVC, or PP (preferably PP or PVC) round-bottom, 96-well microplates containing 100 μl per well of the respective growth medium as described above, compounds to be tested (dissolved in DMSO) are added and mixed, to give a final concentration of 250–500 μM. These microplates then also are used to make successive dilutions of the compounds in the same respective growth medium to yield microplates containing final concentrations of, for example, 160 μM and 32 μM of the same set of compounds. Control wells are included in the dilution series that contain only DMSO. From the 3 ml overnight cultures, each of the three dilution plate sets is inoculated with 5 μl per well of a 1:1 dilution in the same liquid growth media of the appropriate culture. The covered plate is then incubated with shaking, at 30° C. (for P. aeruginosa or P. fluorescens) or 37° C. (for S. epidermidis), at 200 rpm, for 16–26 hours, in a humidity controlled environment.
(§3) Cells present in biofilm attached to the microplate surface are stained with CV either after removal of the liquid from each well, followed by rinsing three times (aspiration and addition) with 150 μl per well phosphate buffered saline solution (PBS) and final addition of 100 μl per well of PBS, or by direct addition of stain to bacterial cultures without rinsing. To 100 μl per well of PBS or of bacterial culture, 25 μl/well of 1% CV solution (in ˜10% ethanol) is added. After incubation at room temperature for 45 minutes, the dye solution is removed from the plates. Residual dye is immediately removed by gentle rinsing with a stream of deionized water by filling and inverting the plates 4–5 times, or by using an automated pipettor. Rinsed plates are air-dried at room temperature for 0.5–2 hours. Bound dye is extracted by the addition of 150 μL per well of 95% ethanol, followed by vigorous mixing for 10–15 seconds and incubation for 45 minutes at room temperature without shaking. Subsequently, either undiluted or diluted (in ethanol) samples of extracted CV are transferred to flat bottom, polystyrene microtiter plates and absorbances at 586 nm were measured in a microplate reader. Readings from wells containing compounds are compared to the average of data from control wells that contain only DMSO. Replicate samples are measured, and results are reported as averages of the replicate well data points.
(§4) Data are expressed in terms of the average percentage reduction of biofilm formed in the presence of each compound, relative to the DMSO controls, for quadruplicate samples. Assays are run using the three compound concentrations indicated. Positive numbers indicate prevention of biofilm formation by a compound, and negative numbers indicate enhancement of biofilm formation by a compound (percentage coefficients of variation are ≦10%).

In assay [2] the test system is S. epidermidis strain ATCC 35984. The description is as above. The conditions noted are these: Staphylococcus epidermidis, positive = prevention, negative = enhancement of biofilm formation, quadruplicate, read-out: average percentage reduction of biofilm formed relative to DMSO controls; for inhibition at 32 µM: ATCC35984, 32 μM; for inhibition at 160 µM: ATCC35984, 160 μM; for inhibition at 390 µM: ATCC35984, 390 μM. The protocol:
as §1, §2, §3, §4

In assay [3] the test system is P. aeruginosa strain PAO1. The description is as above. The conditions noted are these: Pseudomonas aeruginosa, positive = prevention, negative = enhancement of biofilm formation, quadruplicate, read-out: average percentage reduction of biofilm formed relative to DMSO controls. The protocol:
as §1, §2, §3, §4

The test system of assay [4] is P. fluorescens strain ATCC 13525. The experiment in a line: Improved biofilm dispersion screen (already-formed biofilms, crystal violet). The conditions noted are these: Pseudomonas fluorescens, ATCC13525, 20 mM NaOH step, positive = dispersion, negative = enhancement of pre-existing biofilm, quadruplicate, read-out: average percentage reduction of biofilm relative to the two control values (dispersion). The protocol:
(§5) A modification of method disclosed in Reference Example 2, which greatly improves the sensitivity and reproducibility of the dispersion screen is hereby disclosed. […] In the modification described herein, compounds are added in the presence of the fresh liquid growth media, such that the resultant biofilms continue to grow, unless a test compound triggers their dispersion. Overnight cultures are made as above, and 100 μL of the appropriate liquid growth media are dispensed into duplicate 96 well microplates—in this fashion, two identical microplates are set up for each bacterial species to be assayed. Neither compounds nor DMSO are added prior to the inoculation of bacteria, and growth in the duplicate plates for 24 hours is allowed using the conditions specified in Reference Example 1. After growth of biofilm to be tested in the wells, cells present in biofilm attached to one of the duplicate microplates is stained with CV, quantitated as described in Reference Example 1, and the data for the entire plate averaged, resulting in a growth control value, t0. The remaining replicate of each microplate pairs is treated with compounds in DMSO, or DMSO alone for control wells, by first removing the cell suspensions from the wells, then adding fresh 100 μL volumes of the same appropriate liquid growth media, followed by direct addition and mixing of the compound DMSO solutions to give final compound concentrations of 390 μM. Incubation of the compound-containing microplates is then continued for an additional 22–26 hours using the same conditions described in Reference Example 1. Cell suspensions are then removed, 100 μL per well of a 0 mM NaOH (S. epidermidis), 20 mM NaOH (P. fluorescens), or 30 mM NaOH (P. aeruginosa) solution in PBS is added, and incubation at room temperature is allowed for 30 minutes. No addition of NaOH is made to the S. epidermidis suspension since a test assay indicated no amplification by base with S. epidermidis. The microplates are subsequently rinsed three times with 150 μL per well of PBS, followed by final liquid removal, staining with CV and quantitation as described in Reference Example 1. Data for each well that contained compound result in a compound value, R, and data for control wells that contained DMSO only are averaged to generate a second control value, t24. The effect of each compound tested on dispersion of the biofilm compared to the two control values is calculated thus: [formula] […] Data are expressed in terms of the average percentage reduction of biofilm formed in the presence of each compound, relative to the two control values, for quadruplicate samples. Assays are run as described above, using compound concentrations of 390 μM. Positive numbers indicate dispersion (reduction) of pre-existing biofilms by a compound, and negative numbers indicate enhancement (stimulation of growth) of pre-existing biofilms by a compound (percentage coefficients of variation are ≦15%).

Assay [5] relates to S. epidermidis strain ATCC 35984. The assay is described as above. The conditions noted are these: Staphylococcus epidermidis, ATCC35984, no NaOH, positive = dispersion, negative = enhancement of pre-existing biofilm, quadruplicate, read-out: average percentage reduction of biofilm relative to the two control values (dispersion). The protocol: as §5
The test system of assay [6] is P. aeruginosa strain PAO1. The description is as above. The conditions noted are these: Pseudomonas aeruginosa, 30 mM NaOH step, positive = dispersion, negative = enhancement of pre-existing biofilm, quadruplicate, read-out: average percentage reduction of biofilm relative to the two control values (dispersion). The protocol:
as §5

`CCCCCCCCCCCCNC(=O)[C@H]1CCCN1C(=O)OC(C)(C)C` [Compound 159]: the inhibition at 32 µM in assay [1] was -1%; in assay [2], -9%; in assay [3], -9%. The inhibition at 160 µM in assay [1] is -3%; in assay [2], -20%; in assay [3] it was -38%. In addition, the inhibition at 390 µM in assay [1] was -13%; in assay [2], -3%; in assay [3] it was -50%; in assay [4] it was -94%; in assay [5], 0%; in assay [6] it was -55%.

Turning to `CCCCCCNC(=O)[C@H]1CCCN1` [Compound 163], the inhibition at 32 µM was 5% in assay [1], -3% in assay [2] and 1% in assay [3]. For the same molecule, the inhibition at 160 µM in assay [1] is 6%; in assay [2] it was -5%; in assay [3], 22%. The inhibition at 390 µM was 22% in assay [1]; -10% in assay [2]; 46% in assay [3]; 12% in assay [4]; -5% in assay [5]; 4% in assay [6].

On to `CCCCCCNC(=O)C1CCCN1C(C)=O` (racemic) [Compound 7], for which the inhibition at 32 µM in assay [1] is -11%; in assay [2], -10%; in assay [3], -13%. Moreover, the inhibition at 160 µM is -30% in assay [1], 6% in assay [2] and -20% in assay [3]. The inhibition at 390 µM is -32% in assay [1]; -11% in assay [2]; -13% in assay [3]; -4% in assay [4]; 0% in assay [5]; -6% in assay [6].

On to `CCCCCCCCNC(=O)[C@H]1CCCN1C(=O)OC(C)(C)C` [Compound 154], for which the inhibition at 32 µM in assay [1] was 4%; in assay [2] it was -16%; in assay [3], -1%. Further, the values for the inhibition at 160 µM in assay [1], in assay [2] and in assay [3] were 10%, -42% and -9%, respectively. The inhibition at 390 µM in assay [1] is 11%; in assay [2], 52%; in assay [3], -15%; in assay [4], 10%; in assay [5], 0%; in assay [6], -63%.

For `CCCCCCCCCCCCNC(=O)[C@@H]1CCCN1C(=O)OC(C)(C)C` [Compound 160], the inhibition at 32 µM in assay [1] is -1%; in assay [2], -9%; in assay [3] it was -2%. The results for the inhibition at 160 µM in assay [1], in assay [2] and in assay [3] were 0%, 20% and -44%, respectively. Moreover, the inhibition at 390 µM in assay [1] is -18%; in assay [2], 29%; in assay [3], -59%; in assay [4], -44%; in assay [5], 0%; in assay [6], -52%.

Regarding `CCCCCCCCNC(=O)[C@H]1CCCN1` [Compound 164], the inhibition at 32 µM in assay [1] was 8%; in assay [2], -8%; in assay [3], 6%. Moreover, the inhibition at 160 µM was 7% in assay [1], -1% in assay [2] and 11% in assay [3]. Moreover, the inhibition at 390 µM was 54% in assay [1]; -35% in assay [2]; 12% in assay [3]; 47% in assay [4]; -3% in assay [5]; 38% in assay [6].

In the case of `CCCCCCCCNC(=O)C1CCCN1C(C)=O` (stereo not drawn) [Compound 8], the inhibition at 32 µM in assay [1] was -12%; in assay [2], -13%; in assay [3], -9%. In addition, the figures for the inhibition at 160 µM in assay [1], in assay [2] and in assay [3] were -26%, -22% and -11%, respectively. The inhibition at 390 µM in assay [1] was -24%; in assay [2], -32%; in assay [3] it was -9%; in assay [4] it was -1%; in assay [5], 0%; in assay [6] it was -30%.
